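Each compound was tested at five concentrations against cells in 96-well plates for 48 hours. GI50 marks 50% less growth. TGI is the concentration that stops growth completely.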
What was measured:
Test in all cases: NCI anticancer screen, dose series, 48 h
M14 melanoma = test system: M14 melanoma
UO-31 renal = test system: UO-31 renal
A498 renal = test system: A498 renal
RPMI-8226 leukemia = test system: RPMI-8226 leukemia
OVCAR-5 ovarian = test system: OVCAR-5 ovarian
MDA-MB-231 breast = test system: MDA-MB-231 breast
SK-MEL-28 melanoma = test system: SK-MEL-28 melanoma
HCC-2998 colon = test system: HCC-2998 colon
T-47D breast = test system: T-47D breast
K-562 leukemia = test system: K-562 leukemia
NCI-H226 lung = test system: NCI-H226 lung
SK-MEL-2 melanoma = test system: SK-MEL-2 melanoma
HCT-116 colon = test system: HCT-116 colon
TK-10 renal = test system: TK-10 renal
MALME-3M melanoma = test system: MALME-3M melanoma
PC-3 prostate = test system: PC-3 prostate
SNB-19 CNS = test system: SNB-19 CNS
U251 CNS = test system: U251 CNS
HT29 colon = test system: HT29 colon
SF-295 CNS = test system: SF-295 CNS
COLO 205 colon = test system: COLO 205 colon
SN12C renal = test system: SN12C renal
NCI-H522 lung = test system: NCI-H522 lung
HS 578T breast = test system: HS 578T breast
SF-268 CNS = test system: SF-268 CNS
HOP-62 NSCLC = test system: HOP-62 NSCLC
SR leukemia = test system: SR leukemia
MOLT-4 leukemia = test system: MOLT-4 leukemia
OVCAR-3 ovarian = test system: OVCAR-3 ovarian
OVCAR-8 ovarian = test system: OVCAR-8 ovarian
SNB-75 CNS = test system: SNB-75 CNS
DU-145 prostate = test system: DU-145 prostate
KM12 colon = test system: KM12 colon
SK-OV-3 ovarian = test system: SK-OV-3 ovarian
SF-539 CNS = test system: SF-539 CNS
SK-MEL-5 melanoma = test system: SK-MEL-5 melanoma
LOX IMVI melanoma = test system: LOX IMVI melanoma
OVCAR-4 ovarian = test system: OVCAR-4 ovarian
SW-620 colon = test system: SW-620 colon
RXF 393 renal = test system: RXF 393 renal
MDA-MB-435 = test system: MDA-MB-435
NCI-H460 lung = test system: NCI-H460 lung
BT-549 breast = test system: BT-549 breast
HOP-92 NSCLC = test system: HOP-92 NSCLC
786-0 renal = test system: 786-0 renal
CAKI-1 renal = test system: CAKI-1 renal
NCI-H23 lung = test system: NCI-H23 lung
MCF7 breast = test system: MCF7 breast
NCI/ADR-RES ovarian = test system: NCI/ADR-RES ovarian
A549 NSCLC = test system: A549 NSCLC
HL-60(TB) leukemia = test system: HL-60(TB) leukemia
ACHN renal = test system: ACHN renal
UACC-257 melanoma = test system: UACC-257 melanoma
EKVX NSCLC = test system: EKVX NSCLC
HCT-15 colon = test system: HCT-15 colon
CCRF-CEM leukemia = test system: CCRF-CEM leukemia
MDA-MB-468 breast = test system: MDA-MB-468 breast
UACC-62 melanoma = test system: UACC-62 melanoma
IGROV1 ovarian = test system: IGROV1 ovarian

O=C1c2c(c3c4cc(F)ccc4oc3c3[nH]c4ccc(Br)cc4c23)C(=O)N1O
GI50 (M14 melanoma): 0.542 µM
TGI (M14 melanoma): > 100 µM
GI50 (UO-31 renal): 0.439 µM
TGI (UO-31 renal): > 100 µM
GI50 (A498 renal): 26.6 µM
TGI (A498 renal): 70.9 µM
GI50 (RPMI-8226 leukemia): 1.86 µM
TGI (RPMI-8226 leukemia): > 100 µM
GI50 (OVCAR-5 ovarian): > 100 µM
TGI (OVCAR-5 ovarian): > 100 µM
GI50 (MDA-MB-231 breast): 4.99 µM
TGI (MDA-MB-231 breast): 64.3 µM
GI50 (SK-MEL-28 melanoma): 5.84 µM
TGI (SK-MEL-28 melanoma): > 100 µM
GI50 (HCC-2998 colon): 11.5 µM
TGI (HCC-2998 colon): > 100 µM
GI50 (T-47D breast): 3.22 µM
TGI (T-47D breast): > 100 µM
TGI (K-562 leukemia): > 100 µM
GI50 (NCI-H226 lung): 8.35 µM
TGI (NCI-H226 lung): > 100 µM
GI50 (SK-MEL-2 melanoma): 18.6 µM
TGI (SK-MEL-2 melanoma): 45.4 µM
GI50 (HCT-116 colon): 2.09 µM
TGI (HCT-116 colon): > 100 µM
GI50 (TK-10 renal): 24.9 µM
TGI (TK-10 renal): 72.5 µM
GI50 (MALME-3M melanoma): 2.5 µM
TGI (MALME-3M melanoma): 16.1 µM
GI50 (PC-3 prostate): 0.926 µM
TGI (PC-3 prostate): > 100 µM
GI50 (SNB-19 CNS): 0.678 µM
TGI (SNB-19 CNS): > 79.9 µM
GI50 (U251 CNS): 0.641 µM
TGI (U251 CNS): > 100 µM
GI50 (HT29 colon): 6.86 µM
TGI (HT29 colon): > 100 µM
GI50 (SF-295 CNS): 1.24 µM
TGI (SF-295 CNS): > 46.4 µM
GI50 (COLO 205 colon): > 33 µM
TGI (COLO 205 colon): > 100 µM
GI50 (SN12C renal): 0.473 µM
TGI (SN12C renal): > 100 µM
GI50 (NCI-H522 lung): 0.286 µM
TGI (NCI-H522 lung): 5.82 µM
GI50 (HS 578T breast): 2.42 µM
TGI (HS 578T breast): > 34.9 µM
GI50 (SF-268 CNS): 0.844 µM
TGI (SF-268 CNS): > 100 µM
GI50 (HOP-62 NSCLC): 0.833 µM
TGI (HOP-62 NSCLC): > 57.8 µM
GI50 (SR leukemia): 0.131 µM
TGI (SR leukemia): > 100 µM
GI50 (MOLT-4 leukemia): 0.505 µM
TGI (MOLT-4 leukemia): > 100 µM
GI50 (OVCAR-3 ovarian): 45 µM
TGI (OVCAR-3 ovarian): > 100 µM
GI50 (OVCAR-8 ovarian): 1.47 µM
TGI (OVCAR-8 ovarian): > 100 µM
GI50 (SNB-75 CNS): 0.656 µM
TGI (SNB-75 CNS): 8.39 µM
GI50 (DU-145 prostate): 0.735 µM
TGI (DU-145 prostate): > 100 µM
GI50 (KM12 colon): 5.89 µM
TGI (KM12 colon): > 100 µM
GI50 (SK-OV-3 ovarian): 3.72 µM
TGI (SK-OV-3 ovarian): 37.6 µM
GI50 (SF-539 CNS): 0.381 µM
TGI (SF-539 CNS): 4.34 µM
GI50 (SK-MEL-5 melanoma): 1.42 µM
TGI (SK-MEL-5 melanoma): 15 µM
GI50 (LOX IMVI melanoma): 0.227 µM
TGI (LOX IMVI melanoma): 1.4 µM
GI50 (OVCAR-4 ovarian): > 100 µM
TGI (OVCAR-4 ovarian): > 100 µM
GI50 (SW-620 colon): 0.477 µM
TGI (SW-620 colon): > 100 µM
GI50 (RXF 393 renal): 3.76 µM
TGI (RXF 393 renal): 32.8 µM
GI50 (MDA-MB-435): 4.91 µM
TGI (MDA-MB-435): > 100 µM
GI50 (NCI-H460 lung): 0.393 µM
TGI (NCI-H460 lung): > 100 µM
GI50 (BT-549 breast): 1.84 µM
TGI (BT-549 breast): > 100 µM
GI50 (HOP-92 NSCLC): 2.35 µM
TGI (HOP-92 NSCLC): 13.2 µM
GI50 (786-0 renal): 3.84 µM
TGI (786-0 renal): > 50.6 µM
GI50 (CAKI-1 renal): 1.34 µM
TGI (CAKI-1 renal): > 100 µM
GI50 (NCI-H23 lung): 0.471 µM
TGI (NCI-H23 lung): 11.7 µM
GI50 (MCF7 breast): 0.488 µM
TGI (MCF7 breast): > 100 µM
GI50 (NCI/ADR-RES ovarian): 0.578 µM
TGI (NCI/ADR-RES ovarian): > 100 µM
GI50 (A549 NSCLC): > 52.1 µM
TGI (A549 NSCLC): > 100 µM
GI50 (HL-60(TB) leukemia): 6.07 µM
TGI (HL-60(TB) leukemia): > 100 µM
GI50 (ACHN renal): 0.372 µM
TGI (ACHN renal): 13.3 µM
GI50 (UACC-257 melanoma): > 100 µM
TGI (UACC-257 melanoma): > 100 µM
GI50 (EKVX NSCLC): 25.8 µM
TGI (EKVX NSCLC): > 100 µM
GI50 (HCT-15 colon): 3.57 µM
TGI (HCT-15 colon): > 100 µM
GI50 (CCRF-CEM leukemia): 0.193 µM
TGI (CCRF-CEM leukemia): > 100 µM
GI50 (MDA-MB-468 breast): 3.45 µM
TGI (MDA-MB-468 breast): 23 µM
GI50 (UACC-62 melanoma): 0.799 µM
TGI (UACC-62 melanoma): 14.6 µM
GI50 (IGROV1 ovarian): 1.05 µM
TGI (IGROV1 ovarian): > 100 µM
